Test [1] deals with T1, glucosylceramide synthase (Homo sapiens, UniProt Q16739).
T1 construct: Microsomes were isolated from A375 human melanoma cells; endogenous in cells; host or cells: A375 human melanoma cells (microsomal fraction, 100,000 g pellet)
T1 sequence (Q16739 1-394): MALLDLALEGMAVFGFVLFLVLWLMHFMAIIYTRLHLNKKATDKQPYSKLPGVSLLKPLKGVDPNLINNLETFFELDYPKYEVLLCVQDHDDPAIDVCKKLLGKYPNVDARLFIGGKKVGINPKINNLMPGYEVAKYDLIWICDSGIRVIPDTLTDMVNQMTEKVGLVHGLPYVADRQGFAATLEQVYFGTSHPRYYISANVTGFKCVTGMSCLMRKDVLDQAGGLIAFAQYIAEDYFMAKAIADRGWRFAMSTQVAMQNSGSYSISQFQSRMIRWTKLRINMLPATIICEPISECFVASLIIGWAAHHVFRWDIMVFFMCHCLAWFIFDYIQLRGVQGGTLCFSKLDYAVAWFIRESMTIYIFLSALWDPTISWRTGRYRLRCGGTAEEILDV
The test can be described thus: microsomal assay measuring conversion of ceramide to glucosylceramide by HPLC (GCS IC50). It counts as biochemical. To be noted: concentration causing 50% inhibition of glucosylceramide synthase activity. On the procedure:
Inhibition of glucosylceramide synthase activity for certain compounds of the invention were measured with 1) a microsomal assay that directly measures the conversion of ceramide to glucosylceramide by HPLC and 2) second, cell based, phenotypic assay that monitors cell surface expression of the downstream lipid GM3 by antibody mediated immunofluorescence. The cell based assay was performed in two different cell types, B16 and C32. Cell viability was also assessed in the second, cell-based assay.
The “Compound Number” in the table corresponds to the compound disclosed in the Example of the same number. The results of the microsomal assay are expressed as “GCS IC50”, which represents the concentration of the compound causing 50% inhibition of glucosylceramide synthase activity. The results of the cell based assays (performed in two different cell systems, i.e. B16 mouse melanoma or C32 human melanoma cells) are expressed as “GM3 B16 IC50” or “GM3 C32 IC50” for the B16 assay and the C32 assay, respectively. These values represent the concentration of the compound causing 50% inhibition of GM3 expression on the cell surface. The results of the viability assays are expressed as “Viability, B16 IC50” or “Viability, C32 IC50”, respectively. These values represent the concentration of the compound causing 50% cell death. Values greater than 10 represent a lack of cell death.

In test [2] the test system is GM3 expression on the cell surface, B16 mouse melanoma cells. The test can be described thus: cell based phenotypic assay, cell surface GM3 by antibody mediated immunofluorescence, B16 (GM3 B16 IC50). The settings on record: 50% inhibition of GM3 expression on the cell surface. On the procedure: (§1) The cell based assay was performed in two different cell types, B16 and C32. Cell viability was also assessed in the second, cell-based assay.
(§2) The “Compound Number” in the table corresponds to the compound disclosed in the Example of the same number. […] The results of the cell based assays (performed in two different cell systems, i.e. B16 mouse melanoma or C32 human melanoma cells) are expressed as “GM3 B16 IC50” or “GM3 C32 IC50” for the B16 assay and the C32 assay, respectively. […] The results of the viability assays are expressed as “Viability, B16 IC50” or “Viability, C32 IC50”, respectively. These values represent the concentration of the compound causing 50% cell death. Values greater than 10 represent a lack of cell death.

The test system of test [3] is GM3 expression on the cell surface, C32 human melanoma cells. The test can be described thus: cell based phenotypic assay, cell surface GM3 by antibody mediated immunofluorescence, C32 (GM3 C32 IC50). The settings on record: 50% inhibition of GM3 expression on the cell surface. Here is the method:
as §1, §2

Test [4] has as its system B16 mouse melanoma cells. The test can be described thus: cell viability in the B16 cell-based assay (Viability, B16 IC50). Here is the method: as §1, §2
Test [5] concerns C32 human melanoma cells. The test can be described thus: cell viability in the C32 cell-based assay (Viability, C32 IC50). On the procedure: as §1, §2
Setting [6] is: B16 mouse melanoma cells, read-out: GM3 B16 IC50.
Where [7] appears, read: C32 human melanoma cells, read-out: GM3 C32 IC50.
[8] abbreviates: B16 cells; concentration causing 50% cell death; values greater than 10 represent a lack of cell death; read-out: Viability, B16 IC50.
Where [9] appears, read: C32 cells; concentration causing 50% cell death; values greater than 10 represent a lack of cell death; read-out: Viability, C32 IC50.
[10] abbreviates: Mus musculus, B16, B16 cells; concentration causing 50% cell death; values greater than 10 represent a lack of cell death; read-out: Viability, B16 IC50.
The mark [11] stands for this setting: Homo sapiens, C32, C32 cells; concentration causing 50% cell death; values greater than 10 represent a lack of cell death; read-out: Viability, C32 IC50.
Setting [12] is: Mus musculus, B16 mouse melanoma cells, read-out: GM3 B16 IC50.
[13] abbreviates: Homo sapiens, C32 human melanoma cells, read-out: GM3 C32 IC50.

The structures appear in SMILES notation. Like-named read-outs stand apart in the source and are kept apart here. Bounds are passed on as bounds.

Take `COCCOCc1ccc(-c2nc(N3CCC(F)(C(=O)NC4(C)CCN5CCC4CC5)CC3)ncc2F)cc1` (single isomer, unassigned) [Example 79, 4-Fluoro-1-(5-fluoro-4-(4-((2-methoxyethoxy)methyl)phenyl)pyrimidin-2-yl)-N-(4-methyl-1-azabicyclo[3.2.2]nonan-4-yl)piperidine-4-carboxamide]: the IC50 turned out to be 1.8 nM in test [1]; 109 nM in test [2] (setting [6]); 0.191 nM in test [3] (setting [7]); 4280 nM in test [4] (setting [8]); 215 nM in test [5] (setting [9]).
Consider `C[C@@H]1CN(C(=O)NC2(C)CCN3CCC2CC3)CCN1c1nccc(-c2ccccc2)n1` (single isomer, unassigned) [Example 137], for which the IC50 came to 3.2 nM in test [1]; 50.1 nM in test [2] (setting [6]); 0.198 nM in test [3] (setting [7]); 5720 nM in test [4] (setting [8]); 1000 nM in test [5] (setting [9]).
Consider `C[C@@H]1CN(C(=O)NC2(C)CCN3CCC2CC3)CCN1c1nccc(-c2ccccc2)n1` (single isomer, unassigned) [Example 138], for which the concentration for half-maximal inhibition (IC50) in test [1] is 902 nM; in test [2] (setting [6]) it was above 10000 nM; in test [3] (setting [7]) it was 63.6 nM; in test [4] (setting [10]) it was 9310 nM; in test [5] (setting [9]), 3160 nM.
As to `C[C@H]1CN(C(=O)NC2(C)CCN3CCC2CC3)CCN1c1nccc(-c2ccccc2)n1` (single isomer, unassigned) [Example 139], the half-inhibitory concentration (IC50) in test [1] was 17.3 nM; in test [2] (setting [6]), 67 nM; in test [3] (setting [7]) it was 1.37 nM; in test [4] (setting [10]) it was 5250 nM; in test [5] (setting [11]), 3160 nM.
For `C[C@H]1CN(C(=O)NC2(C)CCN3CCC2CC3)CCN1c1nccc(-c2ccccc2)n1` (single isomer, unassigned) [Example 140], the IC50 in test [1] stood at 46.9 nM; in test [2] (setting [6]), 9080 nM; in test [3] (setting [7]), 574 nM; in test [4] (setting [8]) it was 6490 nM; in test [5] (setting [9]), 3160 nM.
Turning to `CCC1(NC(=O)NC2(c3ccc(-c4ccc(COCCOC)cc4)cc3)CC2)CN2CCC1CC2` (single isomer, unassigned) [Example 208, 1-(3-Ethylquinuclidin-3-yl)-3-(1-(4′-((2-methoxyethoxy)methyl)-[1,1′-biphenyl]-4-yl)cyclopropyl)urea], the half-maximal inhibitory concentration (IC50) is 2710 nM in test [1]; 988 nM in test [2] (setting [6]); 73.9 nM in test [3] (setting [7]); at least 10000 nM in test [4] (setting [10]); at least 10000 nM in test [5] (setting [9]).
Turning to `CCC1(NC(=O)NC2(c3ccc(-c4ccc(COCCOC)cc4)cc3)CC2)CN2CCC1CC2` (single isomer, unassigned) [Example 209, 1-(3-Ethylquinuclidin-3-yl)-3-(1-(4′-((2-methoxyethoxy)methyl)-[1,1′-biphenyl]-4-yl)cyclopropyl)urea], the IC50 in test [1] was 17.4 nM; in test [2] (setting [6]), 39.2 nM; in test [3] (setting [7]), 1.05 nM; in test [4] (setting [8]) it was at least 10000 nM; in test [5] (setting [9]) it was 1780 nM.
Take `COCCOc1ccc(-c2ccc(C(C)(C)NC(=O)OC3CCN4CCC3CC4)nc2)cc1` (single isomer, unassigned) [Example 348, 1-Azabicyclo[3.2.2]nonan-4-yl 2-(5-(4-(2-methoxyethoxy)phenyl)pyridin-2-yl)propan-2-ylcarbamate]: the IC50 in test [1] is 27.8 nM; in test [2] (setting [6]), 87.2 nM; in test [3] (setting [7]) it was 3.52 nM; in test [4] (setting [10]), at least 10000 nM; in test [5] (setting [11]), 1000 nM.
In the case of `COCCOc1ccc(-c2ccc(C(C)(C)NC(=O)OC3CCN4CCC3CC4)nc2)cc1` (single isomer, unassigned) [Example 349, 1-Azabicyclo[3.2.2]nonan-4-yl 2-(5-(4-(2-methoxyethoxy)phenyl)pyridin-2-yl)propan-2-ylcarbamate], the IC50 in test [1] is 250 nM; in test [2] (setting [6]), 233 nM; in test [3] (setting [7]) it was 14.4 nM; in test [4] (setting [8]), at least 10000 nM; in test [5] (setting [9]) it was 1000 nM.
With `CC1(NC(=O)N2CCN(c3ccc(-c4ccccc4)cc3)CC2)CN2CCC1CC2` (centres unmarked) [Example 1, 4-([1,1′-Biphenyl]-4-yl)-N-(3-methylquinuclidin-3-yl)piperazine-1-carboxamide], the IC50 was 719 nM in test [1]; 1260 nM in test [2] (setting [12]); 109 nM in test [3] (setting [13]); 7160 nM in test [4] (setting [10]); at least 10000 nM in test [5] (setting [11]).
`O=C(NC1CN2CCC1CC2)N1CCN(c2ccc(-c3ccccc3)cc2)CC1` (centres unmarked) [Example 2, 4-([1,1′-Biphenyl]-4-yl)-N-(quinuclidin-3-yl)piperazine-1-carboxamide]: the 50% inhibitory concentration (IC50) in test [1] came to 6930 nM; in test [2] (setting [12]) it was 1600 nM; in test [3] (setting [13]) it was 667 nM; in test [4] (setting [10]) it was 5280 nM; in test [5] (setting [11]) it was 7580 nM.
Regarding `O=C(NC1CCN2CCC1CC2)N1CCN(c2ccc(-c3ccccc3)cc2)CC1` (centres unmarked) [Example 3, 4-([1,1′-Biphenyl]-4-yl)-N-(1-azabicyclo[3.2.2]nonan-4-yl)piperazine-1-carboxamide], the 50% inhibitory concentration (IC50) worked out at 10900 nM in test [1]; 6840 nM in test [2] (setting [12]); 1000 nM in test [3] (setting [13]); 4180 nM in test [4] (setting [10]); 2510 nM in test [5] (setting [11]).
Take `CC1(NC(=O)N2CCN(c3ccc(-c4ccccc4)cc3)CC2)CCN2CCC1CC2` (centres unmarked) [Example 4, 4-([1,1′-Biphenyl]-4-yl)-N-(4-methyl-1-azabicyclo[3.2.2]nonan-4-yl)piperazine-1-carboxamide]: the IC50 in test [1] came to 1000 nM; in test [2] (setting [12]), 1380 nM; in test [3] (setting [13]), 62.5 nM; in test [4] (setting [10]), 6160 nM; in test [5] (setting [11]) it was 6310 nM.
For the molecule `O=C(N1CCN(c2ccc(-c3ccccc3)cc2)CC1)N1CCN2CCC1CC2` [Example 5, (4-([1,1′-Biphenyl]-4-yl)piperazin-1-yl)(1,4-diazabicyclo[3.2.2]nonan-4-yl)methanone], the IC50 in test [1] worked out at 30000 nM; in test [2] (setting [12]), 2000 nM; in test [3] (setting [13]), 2000 nM; in test [4] (setting [10]), 2000 nM; in test [5] (setting [11]), 2000 nM.
For the molecule `O=C(OC1CN2CCC1CC2)N1CCN(c2ccc(-c3ccccc3)cc2)CC1` (centres unmarked) [Example 6, Quinuclidin-3-yl 4-([1,1′-biphenyl]-4-yl)piperazine-1-carboxylate], the IC50 in test [1] stood at 5600 nM; in test [2] (Mus musculus, read-out: GM3 B16 IC50, B16 mouse melanoma cells), 3520 nM; in test [3] (Homo sapiens, read-out: GM3 C32 IC50, C32 human melanoma cells), 1000 nM; in test [4] (read-out: Viability, B16 IC50; B16 cells; concentration causing 50% cell death; values greater than 10 represent a lack of cell death) it was 5210 nM; in test [5] (read-out: Viability, C32 IC50; C32 cells; concentration causing 50% cell death; values greater than 10 represent a lack of cell death), 4120 nM.
As to `O=C(NC1CN2CCC1CC2)N1CCN(c2ccccc2)CC1` (centres unmarked) [Example 7, 4-Phenyl-N-(quinuclidin-3-yl)piperazine-1-carboxamide], the IC50 in test [1] is 12200 nM; in test [2] (setting [12]) it was above 10000 nM; in test [3] (setting [13]) it was 7080 nM; in test [4] (setting [10]) it was at least 10000 nM; in test [5] (setting [11]), at least 10000 nM.

Broadly, the IC50 is the concentration that inhibits the measured activity by half.

The values are drawn from patent US12060349B2, “Glucosylceramide synthase inhibitors” (Genzyme Corporation, priority 2012, dated 2024).
